Here are results for 21 compounds from patent publication US20200392158A1, “INHIBITORS OF LEUCINE RICH REPEAT KINASE 2” (GLAXOSMITHKLINE INTELLECTUAL PROPERTY DEVELOPMENT LIMITED, priority 2017, published 2020).

The experiment addresses T1, full length G2019 human LRRK2 (Homo sapiens, UniProt Q5S007, R50H).
T1 construct: made in house; host or cells: HEK293 6E cells transduced with BacMam virus (virus generated in Sf9 cells)
Nature of the experiment: Full length G2019 human LRRK2 inhibition mass spectrometry assay. Format: biochemical. Conditions: LRRKtide to phospho-LRRKtide conversion, RapidFire MS, 2 mM ATP. In outline:
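Inhibition taken as reduced LRRKtide phosphorylation, quantified by RapidFire-coupled triple-quadrupole MS as product/(product+substrate) peak area. Reaction: 2 mM ATP, 25 μM peptide, ~25 nM full-length G2019 Flag-LRRK2, Hepes pH 7.2 buffer, room temperature for 1 h. 11-point 1-in-4 dilutions from 100 μM; logistic fit gives IC50, reported as pIC50.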

The structures appear in SMILES notation. pIC50: −log10 of the molar value.

T1 sequence (Q5S007 with tags, fused parts or gaps R50H): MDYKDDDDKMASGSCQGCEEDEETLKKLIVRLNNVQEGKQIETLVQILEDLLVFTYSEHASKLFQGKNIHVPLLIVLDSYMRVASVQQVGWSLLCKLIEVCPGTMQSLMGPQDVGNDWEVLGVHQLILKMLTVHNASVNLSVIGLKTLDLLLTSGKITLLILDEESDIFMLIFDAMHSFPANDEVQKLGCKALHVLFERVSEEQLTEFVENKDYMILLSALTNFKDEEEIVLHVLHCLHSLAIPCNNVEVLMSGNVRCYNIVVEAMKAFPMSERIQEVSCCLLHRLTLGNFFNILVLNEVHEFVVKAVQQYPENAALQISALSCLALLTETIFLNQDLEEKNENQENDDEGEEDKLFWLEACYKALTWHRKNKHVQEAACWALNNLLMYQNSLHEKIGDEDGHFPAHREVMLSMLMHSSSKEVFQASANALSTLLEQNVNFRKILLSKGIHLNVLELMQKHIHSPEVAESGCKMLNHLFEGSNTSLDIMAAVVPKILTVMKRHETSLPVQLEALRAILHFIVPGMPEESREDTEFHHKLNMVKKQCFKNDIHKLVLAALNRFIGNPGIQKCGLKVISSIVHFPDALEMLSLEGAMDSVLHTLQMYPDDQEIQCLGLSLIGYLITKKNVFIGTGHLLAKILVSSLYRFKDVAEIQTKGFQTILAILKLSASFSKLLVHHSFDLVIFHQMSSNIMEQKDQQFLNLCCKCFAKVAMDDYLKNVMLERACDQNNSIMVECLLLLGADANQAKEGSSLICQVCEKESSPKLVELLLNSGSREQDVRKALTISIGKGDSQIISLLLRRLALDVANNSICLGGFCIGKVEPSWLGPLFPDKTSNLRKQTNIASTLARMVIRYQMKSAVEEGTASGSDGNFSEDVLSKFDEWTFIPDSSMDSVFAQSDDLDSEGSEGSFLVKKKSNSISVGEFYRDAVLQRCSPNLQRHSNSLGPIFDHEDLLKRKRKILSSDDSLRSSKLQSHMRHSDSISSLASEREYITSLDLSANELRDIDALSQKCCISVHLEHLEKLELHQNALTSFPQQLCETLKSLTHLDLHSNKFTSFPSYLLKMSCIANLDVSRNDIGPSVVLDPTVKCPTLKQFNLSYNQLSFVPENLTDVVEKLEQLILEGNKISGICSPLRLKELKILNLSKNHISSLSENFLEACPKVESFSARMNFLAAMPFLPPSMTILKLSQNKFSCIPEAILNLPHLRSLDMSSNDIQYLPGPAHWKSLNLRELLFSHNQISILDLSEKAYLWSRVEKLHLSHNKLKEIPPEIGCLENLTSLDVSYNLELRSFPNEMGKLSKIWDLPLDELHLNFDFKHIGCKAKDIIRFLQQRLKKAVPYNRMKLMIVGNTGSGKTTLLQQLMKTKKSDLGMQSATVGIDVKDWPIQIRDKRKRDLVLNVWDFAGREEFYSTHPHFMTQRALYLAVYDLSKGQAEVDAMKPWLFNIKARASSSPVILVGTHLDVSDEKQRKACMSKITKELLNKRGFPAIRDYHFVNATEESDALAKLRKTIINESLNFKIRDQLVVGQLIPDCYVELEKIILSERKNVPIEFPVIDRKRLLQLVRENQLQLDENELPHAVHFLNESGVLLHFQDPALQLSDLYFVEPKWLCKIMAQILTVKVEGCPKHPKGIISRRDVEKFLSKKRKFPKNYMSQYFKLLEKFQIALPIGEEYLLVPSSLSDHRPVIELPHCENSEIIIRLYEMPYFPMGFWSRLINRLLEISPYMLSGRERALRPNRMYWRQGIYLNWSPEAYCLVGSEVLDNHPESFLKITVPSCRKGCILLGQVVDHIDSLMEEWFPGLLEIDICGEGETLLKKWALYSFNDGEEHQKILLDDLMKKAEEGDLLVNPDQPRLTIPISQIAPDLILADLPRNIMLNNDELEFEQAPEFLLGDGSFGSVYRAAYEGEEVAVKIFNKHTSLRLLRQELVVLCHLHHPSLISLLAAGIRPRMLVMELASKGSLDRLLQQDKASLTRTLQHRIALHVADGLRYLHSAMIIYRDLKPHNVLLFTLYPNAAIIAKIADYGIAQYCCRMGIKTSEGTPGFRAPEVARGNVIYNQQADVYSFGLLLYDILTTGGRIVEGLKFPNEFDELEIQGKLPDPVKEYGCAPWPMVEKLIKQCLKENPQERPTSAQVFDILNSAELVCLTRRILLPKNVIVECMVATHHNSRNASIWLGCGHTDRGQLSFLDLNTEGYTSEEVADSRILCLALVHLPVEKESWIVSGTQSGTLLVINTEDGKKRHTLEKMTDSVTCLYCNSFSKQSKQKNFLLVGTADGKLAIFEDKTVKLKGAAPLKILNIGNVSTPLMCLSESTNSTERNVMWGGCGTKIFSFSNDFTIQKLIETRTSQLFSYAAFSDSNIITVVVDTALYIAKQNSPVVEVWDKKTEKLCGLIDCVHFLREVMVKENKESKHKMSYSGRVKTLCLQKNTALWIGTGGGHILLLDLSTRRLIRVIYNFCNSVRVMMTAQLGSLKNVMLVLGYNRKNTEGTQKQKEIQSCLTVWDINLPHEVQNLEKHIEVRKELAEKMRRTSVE

As to `Cc1c2c(nn1C1CCOCC1)OCC[C@@H](C)Nc1nc(ncc1F)N2` [E295, (11R)-14-Fluoro-4,11-dimethyl-5-(oxan-4-yl)-8-oxa-2,5,6,12,16,17-hexaazatricyclo[11.3.1.0^3,7]heptadeca-1(16),3,6,13(17),14-pentaene], the pIC50 – broadly, the IC50 on a negative log10 scale, so that one unit is a factor of ten – is at least 7.00.

Compound `COCC1CCOc2nn(C3CCOCC3)c(C)c2Nc2ncc(Cl)c(n2)N1` (single isomer, unassigned) [E36, 14-chloro-11-(methoxymethyl)-4-methyl-5-(oxan-4-yl)-8-oxa-2,5,6, 12,16,17-hexaazatricyclo-[11.3.1.0^3,7]heptadeca-1(16),3,6,13(17),14-pentaene] gave a pIC50 of at least 7.00.

Compound `Cc1c2c(nn1C1CC3CCC(C1)O3)OCCC(C)Nc1nc(ncc1Cl)N2` (single isomer, unassigned) [E251, 14-Chloro-4,11-dimethyl-5-{8-oxabicyclo[3.2.1]octan-3-yl}-8-oxa-2,5,6,12,16,17-hexaazatricyclo[11.3.1.0^3,7] heptadeca-1(16),3,6,13(17),14-pentaene] showed a pIC50 of at least 7.00.

Compound `Cc1c2c(nn1CC(C)(C)O)OCCCNc1nc(ncc1Cl)N2` [E263, 1-{14-Chloro-4-methyl-8-oxa-2,5,6,12,16,17-hexaazatricyclo [11.3.1.0^3,7]heptadeca-1(16),3,6,13(17),14-pentaen-5-yl}-2-methylpropan-2-ol] gave a pIC50 of at least 5.00.

With `Cc1c2c(nn1C1CCOCC1)OCCC(C(F)F)Nc1nc(ncc1Cl)N2` (single isomer, unassigned) [E89, 14-chloro-11-(difluoromethyl)-4-methyl-5-(oxan-4-yl)-8-oxa-2,5,6, 12,16,17-hexaazatricyclo[11.3.1.0^3,7]heptadeca-1(16),3,6,13(17),14-pentaene], the pIC50 was at least 5.00.

In the case of `Cc1c2c(nn1C1CCCOC1)OCC(C)CNc1nc(ncc1Cl)N2` (single isomer, unassigned) [E307, 14-Chloro-4,10-dimethyl-5-(oxan-3-yl)-8-oxa-2,5,6,12,16,17-hexaazatricyclo[11.3.1.0^3,7]heptadeca-1(16),3,6, 13(17),14-pentaene], the pIC50 is at least 7.00.

With `Cc1c2c(nn1C1CCOCC1)OCCC(C(F)(F)F)Nc1nc(ncc1Cl)N2` (single isomer, unassigned) [E193, 14-Chloro-4-methyl-5-(oxan-4-yl)-11-(trifluoromethyl)-8-oxa-2,5,6,12,16,17-hexaazatricyclo[11.3.1.0^3,7] heptadeca-1(16),3,6,13(17),14-pentaene], the pIC50 was at least 5.00.

In turn, `Cc1c2c(nn1C1COCCC1(F)F)OCCCNc1nc(ncc1Cl)N2` (single isomer, unassigned) [E303, 14-Chloro-5-(4,4-difluorooxan-3-yl)-4-methyl-8-oxa-2,5,6,12,16,17-hexaazatricyclo[11.3.1.0^3,7]heptadeca-1(16),3,6,13(17),14-pentaene] showed a pIC50 of at least 5.00.

`Cc1c2c(nn1C1CCC(N3C[C@H]4C[C@@H]3CO4)CC1)OCCCNc1nc(ncc1Cl)N2` (single isomer, unassigned) [E49] gave a pIC50 of at least 7.00.

In the case of `Cc1c2c(nn1C1CCOCC1)OCCNc1nc(ncc1Cl)N2` [E138, 13-Chloro-4-methyl-5-(oxan-4-yl)-8-oxa-2,5,6,11,15,16-hexaaza tricyclo[10.3.1.0^3,7]hexadeca-1(15),3,6,12(16),13-pentaene], the pIC50 is at least 5.00.

Take `Cc1c2c(nn1C1CCOCC1)OCC(C)CNc1nc(ncc1Cl)N2` (single isomer, unassigned) [E137, 14-chloro-4,10-dimethyl-5-(oxan-4-yl)-8-oxa-2,5,6,12,16,17-hexaazatricyclo[11.3.1.0^3,7]heptadeca-1(16),3,6,13(17),14-pentaene]: the pIC50 is at least 7.00.

The compound `Cc1c2c(nn1CCN1C[C@H]3C[C@@H]1CO3)OCCC(C)Nc1nc(ncc1Cl)N2` (single isomer, unassigned) [E209] showed a pIC50 of at least 5.00.

`Cc1c2c(nn1C1CCN(C3COC3)CC1F)OCCCNc1nc(ncc1Cl)N2` (single isomer, unassigned) [E62, trans-14-chloro-5-[3-fluoro-1-(oxetan-3-yl)piperidin-4-yl]-4-methyl-8-oxa-2,5,6,12,16,17-hexaazatricyclo[11.3.1.0^3,7]heptadeca-1(16),3,6,13(17),14-pentaene] showed a pIC50 of at least 7.00.

For `Cc1c2c(nn1C1(C(F)(F)F)CCOCC1)OCC[C@@H](C)Nc1nc(ncc1Cl)N2` [E419, (11R)-14-Chloro-4,11-dimethyl-5-[4-(trifluoromethyl)oxan-4-yl]-8-oxa-2,5,6,12,16,17-hexaazatricyclo[11.3.1.0^3,7]heptadeca-1(16),3,6,13(17),14-pentaene], the pIC50 is at least 7.00.

`COC1CNc2nc(ncc2Cl)Nc2c(nn(CC3(C)COC3)c2C)OC1` (single isomer, unassigned) [E273, 14-Chloro-10-methoxy-4-methyl-5-[(3-methyloxetan-3-yl)methyl]-8-oxa-2,5,6,12,16,17-hexaazatricyclo [11.3.1.0^3,7]heptadeca-1(16),3,6,13(17),14-pentaene]: the pIC50 is at least 5.00.

As to `COCC1CCOc2nn(C3CCOCC3F)c(C)c2Nc2ncc(Cl)c(n2)N1` (single isomer, unassigned) [E357, 14-Chloro-5-(3-fluorooxan-4-yl)-11-(methoxymethyl)-4-methyl-8-oxa-2,5,6,12,16,17-hexaazatricyclo [11.3. 1.0^3,7]heptadeca-1(16),3,6,13(17),14-pentaene], the negative-log IC50 (pIC50) was at least 7.00.

Turning to `Cc1c2c(nn1C(C)C1CCOCC1)OCCC(C)Nc1nc(ncc1Cl)N2` (single isomer, unassigned) [E184, 14-Chloro-4,11-dimethyl-5-[1-(oxan-4-yl)ethyl]-8-oxa-2,5,6,12,16,17-hexaazatricyclo[11.3.1.0^3,7]heptadeca-1(16),3,6,13(17),14-pentaene], the pIC50 is at least 7.00.

For `Cc1c2c(nn1C1CCC(N3CCOCC3)C1)OCCCNc1nc(ncc1Cl)N2` (single isomer, unassigned) [E370, 14-Chloro-4-methyl-5-[3-(morpholin-4-yl)cyclopentyl]-8-oxa-2,5,6,12,16,17-hexaazatricyclo[11.3.1.0^3,7] heptadeca-1(16),3,6,13(17),14-pentaene], the pIC50 was at least 5.00.

Take `Cc1c2c(nn1C1CC(C)OC(C)C1)OCCCNc1nc(ncc1Cl)N2` (single isomer, unassigned) [E201, 14-Chloro-5-(2,6-dimethyloxan-4-yl)-4-methyl-8-oxa-2,5,6,12,16,17-hexaazatricyclo[11.3.1.0^3,7]heptadeca-1(16),3,6,13(17),14-pentaene]: the pIC50 is at least 7.00.

In turn, `Cc1c2c(nn1C1CCCOC1)OCCCNc1nc(ncc1Cl)N2` (single isomer, unassigned) [E11, 14-Chloro-4-methyl-5-(oxan-3-yl)-8-oxa-2,5,6,12,16,17-hexaaza tricyclo-[11.3.1.0^3,7]heptadeca-1(16),3,6,13(17),14-pentaene] gave a pIC50 of at least 7.00.

With `COCC1CCOc2nn(C3CCOCC3F)c(C)c2Nc2ncc(Cl)c(n2)N1` (single isomer, unassigned) [E352, 14-Chloro-5-(3-fluorooxan-4-yl)-11-(methoxymethyl)-4-methyl-8-oxa-2,5,6,12,16,17-hexaazatricyclo [11.3. 1.0^3,7]heptadeca-1(16),3,6,13(17),14-pentaene], the pIC50 is at least 7.00.
